Assay results published in patent US11833131B2, “Compositions and methods for treating inflammatory diseases” (priority 2017, dated 2023).
pEC50: −log10 of the molar value.

What was measured:
Format in all cases: cell-based, human
HCT116 cells = test: Cell viability, Alamar Blue (Resazurin assay), HCT116
Description: HCT116 cells were seeded (50,000 per well) in triplicate in 500 μL growing media and incubated for 24 hours at 37° C. in a humidified 5% CO2-95% air atmosphere. […] Following, the cells were incubated with Alamar Blue for 4 hours. Relative fluorescence at the excitation/emission of 544/590 nm was measured. Values were calculated as percentage of live cells relative to the non-treated (cells without TNF-α and treatments) control after reducing the auto fluorescence of Alamar Blue without cells (n=3). […] HCT116 cells were seeded (50,000 per well) in triplicate in 500 μL, growing media and incubated for 24 hours at 37° C. in a humidified 5% CO2-95% air atmosphere. […] Relative fluorescence at the excitation/emission of 544/590 nm was measured. Values were calculated as percentage of live cells relative to the non-treated (cells without TNF-α and treatments) control after reducing the auto fluorescence of Alamar Blue without cells (n=3). […]
Resazurin (R&D Systems) was used to check the cytotoxic effect of extracts. […] Supernatant (100 μL from each well) was transferred to a 96-well plate and the relative fluorescence at the excitation/emission of 544/590 nm was measured. The number of live cells was calculated with a linear standard concentrate curve built by seeding different concentrations of cells in 24-well plates treated with Resazurin. […]

HT29 cells = test: Cell viability, Alamar Blue (Resazurin assay), HT29; conditions: CBD 16-252 μg/mL, relative to HCT116 and CaCO2
Description: (§1) Resazurin (R&D Systems) was used to check the cytotoxic effect of extracts. For this, 10% Resazurin was added to each well of the treatments with different dilution. Then the plate was incubated for 2-4 hours at 37° C. in a humidified 5% CO2-95% air atmosphere. Supernatant (100 μL from each well) was transferred to a 96-well plate and the relative fluorescence at the excitation/emission of 544/590 nm was measured. The number of live cells was calculated with a linear standard concentrate curve built by seeding different concentrations of cells in 24-well plates treated with Resazurin. Values were calculated as percentage of live cells relative to the non-treated (cells without TNF-α and treatments) control after reducing auto-fluorescence of Alamar Blue without cells.

[1] = system: IL-8 levels in CaCO2 cells; test: IL-8 ELISA in TNF-α-treated CaCO2 cells; conditions: CaCO2, 300 ng/mL TNF-α, 4 hours
Description: (§2) HCT116 (ATCC CCL-247), HT29 (ATCC HTB-38) and CaCO2 (ATCC HTB-37) colon cells were grown at 37° C. in a humidified 5% CO2-95% air atmosphere. Cells were maintained in McCoy's 5a Modified Medium (HCT116 and HT29) and Dulbecco's modified Eagle's medium (DMEM) supplemented with 10% fetal bovine serum (CaCO2).
(§3) Cells were seeded, in triplicate, into a 24-well plate at a concentration of 50,000 cells per well in 500 μL, of growing media, and then incubated for 24 hours at 37° C. in a humidified 5% CO2-95% air atmosphere. When cell excitation was performed with TNF-α, cultures in each well were treated with 50-300 ng/mL recombinant human TNF-α (PeproTech, Rocky Hill, N.J., USA) and 50 μL plant extract, as described above (dilution index 57 or 280). The supernatant was taken and the level of IL-8 [12] was measured 4-16 hours post-treatment using the commercial Human CXCL8/IL-8 DuoSet ELISA kit (R&D Systems, Minneapolis, Minn., USA). As a positive control dexamethasone (Sigma-Aldrich, St. Louis, Mo., USA) at 20, 200 and 400 μM final concentration was used.

[2] = system: IL-8 levels in HT29 cells; test: IL-8 ELISA in TNF-α-treated HT29 cells, incl. F7/THCA + CBD combinations (Bliss model); conditions: for dose response of IL-8 levels: HT29, after 4 hours of treatment, F7 5-80 μg/ml, CBD 5-80 μM, THC 12.5-75 μM
Description: as §2, §3
In order to examine if there is a synergy between CBD and F7, ELISA assay was used to measure the anti-inflammatory activity of the fractions on HCT116 cells. Cells were seeded into a 24-well plates at 50,000 cells per well in triplicate in normal growing media. After 24 hours of incubation at 37° C. in a humidified 5% CO2-95% air atmosphere, cells were treated with different concentration of F7 (5 μg/mL to 80 μg/mL) with and without CBD (30 μM) along with 300 ng/mL of TNF-α or with different concentration of CBD (5 μM to 120 μM) with and without F7 (30 μg/mL) along with 300 ng/mL of TNF-α for 4 hours. Following, the supernatant was taken and the levels of IL-8 were measured using the commercial Human CXCL8/IL-8 DuoSet ELISA kit (R&D Systems, Minneapolis, Minn., USA). Resazurin (R&D Systems) was used to check the cytotoxic effect of extracts.
Drug synergy was determined by Bliss independence drug interaction model which is defined by the following equation: Exy=Ex+Ey−(ExEy)
Where (Exy) is the additive effect of the drug x and y as predicted by their individual effects (Ex and Ey). For calculation purpose, in this paper, the drug's anti-cancer effect was defined as complementary to the obtained results (1−Exy). The observed combined percentage viability is then compared to the calculated value. If the observed value of Exy is greater than the calculated Exy value, the combination treatment is considered as worse than expected, which means antagonism effect. If the observed value is less than the calculated one, then the combination treatment is considered as better than expected, thus showing synergism effect. […]

CaCO2 cells = test: Cell viability, Alamar Blue (Resazurin assay), CaCO2; conditions: CBD 16-252 μg/mL
Description: as §1

[3] = system: IL-8 levels in HCT116 cells; test: IL-8 ELISA in TNF-α-treated HCT116 cells; conditions: for pEC50: Homo sapiens, HCT-116, 16 h, read-out: EC50 (anti-inflammatory assay, 50% of activity)
Description: FIGS. 13A-C depict EC50 dose of fractions on HCT116 cells. (FIG. 13A) Fraction 7 (F7), (FIG. 13B) CBD and (FIG. 13C) THC. Dose-effect curves of F7, CBD or THC on IL-8 levels of HCT116 colon cancer cells. HCT116 cells were seeded (50,000 per well) in triplicate in 500 μL, growing media and incubated for 24 hours at 37° C. in a humidified 5% CO2-95% air atmosphere. Cells were treated with 50 ng/mL TNF-α and F7, CBD or THC for 16 hours. Levels of IL-8 were measured from the supernatant using a commercial kit. Values (ng/mL) were calculated relative to a TNF-α treated control. Non-treated are the cells without TNF-α and treatments. For dose response assays, data points were connected by non-linear regression lines of the sigmoidal dose-response relation. GraphPad Prism was employed to produce dose-response curve and EC50 doses.
as §2, §3
The involvement of the receptors (CB1, CB2 and GPR55) was examined by treating the cells with 20 μM of the CB1 receptor antagonist/inverse agonist Rimonabant (Abcam, Cambridge, Mass., USA), CB2 receptor antagonist/inverse agonist SR144528 (Abcam) and GPR55 antagonist/inverse agonist CID16020046 (Sigma-Aldrich, Buchs, Switzerland). […] Cell treatment with purified compounds was performed with CBD (Restek, Pa., USA) at different concentrations (as indicated in each experiment), THCA (THCA-A; Restek) at a final concentration of 0.2 mM and THC (Restek) at a final concentration of as indicated in each experiment mM to confirm the activity of each cannabinoid.
For dose response assays, data points were connected by non-linear regression lines of the sigmoidal dose-response relation. GraphPad Prism (version 6 for windows, GraphPad software Inc. San Diego, USA) was employed to produce dose-response curves and IC50 doses were calculated using nonlinear regression analysis.

[4] = system: CB2 gene expression in HCT-116 cells; test: CB2 gene expression (qPCR) in HCT-116 cells after TNF-α; conditions: HCT-116, overnight treatment with TNF-α vs non-treated; ratio to GAPDH, 2-ΔΔCT
Description: (§4) Cells were seeded into a 6-well plate at a concentration of 1,500,000 cell/mL per well. After 24 hours incubation at 37° C. in a humidified 5% CO2-95% air atmosphere, cells were treated with TNF-α (final concentration of 1 ng/mL) and incubated overnight under the same conditions. Non-treated cells or cells treated only with TNF-α served as negative and positive controls, respectively. […] The next day, cells were harvested and total RNA was extracted using TRI reagent (Sigma-Aldrich) according to the manufacturer's protocol. For biopsies, all treatments were added overnight, after which the biopsies were stored at −20° C. in RNA Save solution (Biological Industries, Beit Haemek, Israel). RNA was extracted from frozen biopsies. Tissue samples were homogenized with an appropriate homogenizer in TRI reagent, as done for the cells. RNA (50 ng for biopsies: four UC patients and one CD patient) or 2.5 μg (for cells) was reverse-transcribed in a total volume of 20 μL using Maxima reverse transcriptase (Thermo Scientific, Boston, Mass., USA) according to the manufacturer's protocol. […] The expression of each target gene was normalized to the expression of GAPDH mRNA in the 2-ΔΔCt and is presented as the ratio of the target gene to GAPDH mRNA, expressed as 2-ΔCt, where Ct is the threshold cycle and ΔCt=Ct Target−Ct GAPDH. […]
(§5) Transcripts for CB1, CB2 and GPR55 were detected by qPCR in HCT116 cells.

[5] = system: CB1 gene expression in HCT-116 cells; test: CB1 gene expression (qPCR) in HCT-116 cells after TNF-α; conditions: HCT-116, overnight treatment with TNF-α vs non-treated; ratio to GAPDH, 2-ΔΔCT
Description: as §4, §5

[6] = system: GPR55 gene expression in HCT-116 cells; test: GPR55 gene expression (qPCR) in HCT-116 cells after TNF-α; conditions: HCT-116, overnight treatment with TNF-α vs non-treated; ratio to GAPDH, 2-ΔΔCT
Description: as §4, §5

C=C(C)[C@@H]1CCC(C)=C[C@H]1c1c(O)cc(CCCCC)cc1O [CBD, cannabidiol]
cell death (HCT116 cells; CBD 16-252 μg/mL): dose-dependent cell death | cell death (HT29 cells): to a lesser extent | anti-inflammatory activity (IL-8 level) [1]: active in reduction of IL-8 levels | anti-inflammatory activity (IL-8 level) ([2]; HT29, 300 ng/mL TNF-α, 4 hours): active in reduction of IL-8 levels | dose response of IL-8 levels [2]: dose dependent reduction of IL-8 levels | IL-8 level at low concentrations ([2]; HT29, CBD below 20 μM): significant decrease in the IL-8 level | cell death (CaCO2 cells): dose-dependent cell death | anti-inflammatory activity (IL-8) ([3]; HCT116, higher CBD concentrations): no anti-inflammatory activity | pEC50 [3]: 4.52 | reduction in IL-8 levels ([3]; purified CBD 16-252 μg/mL, lower concentrations of CBD): reduction in IL-8 levels

Cc1ccc(-c2n[nH]c3c2C(c2cccc(O)c2)N(c2ccc(C(=O)O)cc2)C3=O)cc1 (stereo not drawn) [CID16020046]
IL-8 level in control ([3]; HCT116, antagonist 20 μM alone, without fractions): did not change IL-8 level

CCCCCc1cc(O)c2c(c1)OC(C)(C)[C@@H]1CCC(C)=C[C@@H]21 [THC, Δ9-tetrahydrocannabinol]
dose response of IL-8 levels [2]: dose dependent reduction of IL-8 levels | pEC50 [3]: 3.99

CCCCCc1cc2c(c(O)c1C(=O)O)C1C=C(C)CCC1C(C)(C)O2 (stereo not drawn) [THCA, Δ9-tetrahydrocannabinolic acid]
reduction of IL-8 levels ([3]; HCT116, 50 ng/mL TNF-α, 16 hours, 0.2 mM THCA, F7 diluted 280-fold to correspond to 0.2 mM THCA): significantly reduced IL-8 levels

SR144528
HCT116 cell proliferation (HCT116 cells; antagonist 20 μM): Significantly Increases HCT116 Cell Proliferation

TNF-α
Mean relative expression, CB2 [4]: 5.84 | Mean relative expression, CB1 [5]: 1.31 | Mean relative expression, GPR55 [6]: 5.26
